Six compounds from patent US20260078119A1, “DEGRADER COMPOUNDS AND USES THEREOF” (Bristol-Myers Squibb Company, priority 2024, published 2026) can be followed below.

The subject of one assay is CAL-51 cells. The assay is described as follows: CAL-51 Cell Proliferation Assay. Type of assay: cell-based. The note with it: for EC50: Homo sapiens, 120 hours incubation, 10-point dose response, 4-fold dilutions starting at 10 μM, Cell-Titer-Glo, read-out: CAL-51 Prolif EC50; for CAL-51 Prolif Ymin: minimal percent of DMSO control observed in the concentrations tested (Ymin-obs), 120 hours. In short, it runs like this:
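EC50 comes from a four-parameter logistic fit of blank-corrected, DMSO-normalised CellTiter-Glo signal after 120 h growth (37 °C, 350 cells/well, RPMI complete medium). Compounds ran as 10-point 4-fold series starting at 10 μM, duplicate, 0.1% DMSO. Ymin-obs records the minimal percent of DMSO control observed.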

The next assay addresses T1, FAK (Homo sapiens, UniProt Q05397).
T1 construct: homozygous knock-in of a HiBiT tag (Promega Corporation, Madison, WI) to the C-terminus of the FAK gene in its natural genomic locus; endogenous in cells; host or cells: JHH-4-FAK-HiBiT clone d01 (CRISPR-Cas9 knock-in at the endogenous locus)
Kind of assay: FAK-HiBiT Degradation Assay. The assay is classed as cell-based. The note with it: for DC50: JHH-4-FAK-HiBiT clone d01 cells, two hours incubation, 10-point dose response, 3-fold dilution starting at 1 μM, Nano-Glo HiBiT luminescence, read-out: FAK HiBiT EC50; for FAK HiBiT Ymin: lower limit of the four parameter fit (value A), Ymax derived using DMSO control, JHH-4-FAK-HiBiT cells, two hours. In short, it runs like this:
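Degradation read out by HiBiT lytic luminescence after 2 h compound exposure (top concentration 1 μM, 3-fold, 10 points) in JHH-4 clone d01 bearing endogenous FAK-HiBiT knock-in. Four-parameter logistic fit gave EC50 and Ymin; DMSO wells defined Ymax.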
A general note: The HiBiT peptide binds its large partner to form an active luciferase.

T1 sequence (Q05397 whole entry): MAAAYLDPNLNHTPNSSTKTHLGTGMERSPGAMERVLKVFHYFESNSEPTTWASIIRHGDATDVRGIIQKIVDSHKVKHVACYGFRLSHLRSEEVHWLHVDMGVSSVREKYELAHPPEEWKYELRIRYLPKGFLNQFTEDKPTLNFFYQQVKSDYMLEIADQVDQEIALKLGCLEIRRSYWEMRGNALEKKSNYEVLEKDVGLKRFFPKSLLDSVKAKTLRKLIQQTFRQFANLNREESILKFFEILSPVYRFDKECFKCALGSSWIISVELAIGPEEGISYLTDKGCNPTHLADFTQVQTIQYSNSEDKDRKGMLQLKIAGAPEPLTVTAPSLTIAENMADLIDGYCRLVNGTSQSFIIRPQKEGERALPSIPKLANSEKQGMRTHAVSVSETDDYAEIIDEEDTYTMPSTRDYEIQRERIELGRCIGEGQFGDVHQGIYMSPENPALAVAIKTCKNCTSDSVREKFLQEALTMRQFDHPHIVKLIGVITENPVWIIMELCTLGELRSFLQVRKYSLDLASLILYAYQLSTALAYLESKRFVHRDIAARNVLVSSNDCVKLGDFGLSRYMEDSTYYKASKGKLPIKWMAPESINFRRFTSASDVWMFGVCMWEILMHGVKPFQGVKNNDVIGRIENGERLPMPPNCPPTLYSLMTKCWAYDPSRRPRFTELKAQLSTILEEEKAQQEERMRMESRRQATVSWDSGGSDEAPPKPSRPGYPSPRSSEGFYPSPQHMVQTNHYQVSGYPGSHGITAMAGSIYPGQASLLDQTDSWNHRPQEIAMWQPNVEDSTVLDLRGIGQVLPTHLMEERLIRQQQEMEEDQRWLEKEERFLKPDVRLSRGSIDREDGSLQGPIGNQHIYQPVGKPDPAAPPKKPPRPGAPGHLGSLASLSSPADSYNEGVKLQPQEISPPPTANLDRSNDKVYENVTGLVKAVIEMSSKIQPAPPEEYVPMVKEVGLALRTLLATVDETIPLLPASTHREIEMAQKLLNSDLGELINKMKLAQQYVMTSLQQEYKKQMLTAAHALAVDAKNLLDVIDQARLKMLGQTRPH

What is called EC50 is the concentration needed to bring the measured effect to its halfway point. Turning to `O=C1CCC(N2Cc3cc(Cn4ncc5c(-c6ncc(C(F)(F)F)cc6Cl)c(F)c(N6CC(F)C6)nc54)ccc3C2=O)C(=O)N1` (stereo not drawn) [Example 3, 3-[5-({4-[3-chloro-5-(trifluoromethyl)pyridin-2-yl]-5-fluoro-6-(3-fluoroazetidin-1-yl)-1H-pyrazolo[3,4-b]pyridin-1-yl}methyl)-1-oxo-2,3-dihydro-1H-isoindol-2-yl]piperidine-2,6-dione], in the assay on CAL-51 cells, the EC50 turned out to be 1.42 nM and the “CAL-51 Prolif Ymin” value is reported as 23.98. Besides, on FAK, the DC50 amounted to 0.29 nM and the “FAK HiBiT Ymin” value amounted to 8.97.

As to `O=C1CCC(N2Cc3cc(Cn4cnc5c(-c6ccc(C(F)(F)F)cc6Cl)cc(N6CC(F)C6)nc54)ccc3C2=O)C(=O)N1` (stereo not drawn) [Example 19, 3-(5-((7-(2-chloro-4-(trifluoromethyl)phenyl)-5-(3-fluoroazetidin-1-yl)-3H-imidazo[4,5-b]pyridin-3-yl)methyl)-1-oxoisoindolin-2-yl)piperidine-2,6-dione], in the assay with CAL-51 cells, the EC50 was determined as 0.38 nM and the “CAL-51 Prolif Ymin” value turned out to be 23.48. For the same compound, on FAK, the DC50 stood at 0.86 nM and the “FAK HiBiT Ymin” value was 8.55.

Turning to `N#Cc1ccc(-c2c(F)c(N3CC(F)C3)nc3c2cnn3Cc2ccc3c(c2)CN([C@H]2CCC(=O)NC2=O)C3=O)nc1` [Example 75, 6-[1-({2-[(3S)-2,6-dioxopiperidin-3-yl]-1-oxo-2,3-dihydro-1H-isoindol-5-yl}methyl)-5-fluoro-6-(3-fluoroazetidin-1-yl)-1H-pyrazolo[3,4-b]pyridin-4-yl]pyridine-3-carbonitrile], in the assay on CAL-51 cells, the EC50 is 9.67 nM and the “CAL-51 Prolif Ymin” value is 52.27. At FAK, the DC50 is 7.95 nM and the “FAK HiBiT Ymin” value was 23.15.

`O=C1CCC(N2Cc3cc(Cn4ncc5c(-c6ncc(C(F)(F)F)cc6Cl)cc(NC6COC6)nc54)ccc3C2=O)C(=O)N1` (stereo not drawn) [Example 126, 3-[5-({4-[3-chloro-5-(trifluoromethyl)pyridin-2-yl]-6-[(oxetan-3-yl)amino]-1H-pyrazolo[3,4-b]pyridin-1-yl}methyl)-1-oxo-2,3-dihydro-1H-isoindol-2-yl]piperidine-2,6-dione]: in the assay with CAL-51 cells, the concentration giving a half-maximal response (EC50) was found to be 0.47 nM and the “CAL-51 Prolif Ymin” value was found to be 91.32. In addition, on FAK, the DC50 amounted to 169 nM and the “FAK HiBiT Ymin” value worked out at 89.33.

On to `O=C1CCC(N2Cc3cc(Cn4ncc5c(-c6ncc(C(F)(F)F)cc6F)cc(N6CC(F)C6)nc54)ccc3C2=O)C(=O)N1` (stereo not drawn) [Example 55, 3-[5-({4-[3-fluoro-5-(trifluoromethyl)pyridin-2-yl]-6-(3-fluoroazetidin-1-yl)-1H-pyrazolo[3,4-b]pyridin-1-yl}methyl)-1-oxo-2,3-dihydro-1H-isoindol-2-yl]piperidine-2,6-dione], for which, in the assay with CAL-51 cells, the EC50 was found to be 3.19 nM and the “CAL-51 Prolif Ymin” value was 36.41. In addition, at FAK, the DC50 was determined as 3.13 nM and the “FAK HiBiT Ymin” value is 20.64.

Take `COc1cnc(-c2cc(N3CC(F)C3)nc3c2cnn3Cc2ccc3c(c2)CN(C2CCC(=O)NC2=O)C3=O)c(Cl)c1` (stereo not drawn) [Example 69, 3-(5-{[4-(3-chloro-5-methoxypyridin-2-yl)-6-(3-fluoroazetidin-1-yl)-1H-pyrazolo[3,4-b]pyridin-1-yl]methyl}-1-oxo-2,3-dihydro-1H-isoindol-2-yl)piperidine-2,6-dione]: in the assay on CAL-51 cells, the EC50 turned out to be 1.84 nM and the “CAL-51 Prolif Ymin” value came to 23.38. At FAK, the DC50 was 5.55 nM and the “FAK HiBiT Ymin” value stood at 9.26.
